# Measured values from EP4778922A1, “BICYCLIC COMPOUND, AND PREPARATION METHOD THEREFOR AND PHARMACEUTICAL USE THEREOF” (Shanghai Jeyou Pharmaceutical Co., Ltd., priority 2023, dated 2025).
# Experiments:
# 22RV1 cells = assay: Cell proliferation inhibition assay in 22RV1 cells (CellTiter-Glo, 7 days); type: cell-based, human; details: Homo sapiens
# In short: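 22RV1 cells received compound alone; LNCaP cells were stimulated with 0.2 nM DHT added 1 h after compound. Seeding was 3000 cells/well.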
# LNCaP cells = assay: Cell proliferation inhibition assay in LNCaP cells (0.2 nM DHT, CellTiter-Glo, 7 days); type: cell-based, human; details: Homo sapiens, 168 h
# Procedure: • 1. The human prostate cancer cell lines 22RV1 and LNCaP were purchased from ATCC. […] The cell concentration was adjusted to an appropriate concentration (determined based on the results of cell density optimization experiments), and the cells were seeded into a 96-well plate. A 100 µL cell suspension was added, resulting in 3000 cells per well. […] On the second day, for 22Rv1 cells, test compounds at different concentrations were added, and the cells were incubated at 37°C in a 5% CO2 incubator for 7 days; for LNCaP cells, test compounds at different concentrations were added first, and after 1 hour of treatment, 0.2 nM DHT was added. The cells were then incubated at 37°C in a 5% CO2 incubator for 7 days. • 4. After the incubation period, a volume of CellTiter-Glo detection reagent equal to the volume of the culture medium was added to each well. The plate was shaken and mixed thoroughly for 5 minutes, then incubated at room temperature for 10 minutes. Readings were taken using a PerkinElmer EnVision microplate reader. • 5.
# The IC50 curve was fitted and the IC50 value was calculated using the software GraphPad Prism 8 with the calculation formula XY-analysis/Nonlinear regression (curve fit)/Dose response-Inhibition/log (inhibitor) vs. response-Variable slope (four parameters).
# [1] = Mouse pharmacokinetic test; type: in vivo, ICR mice; details: plasma, po, 30 mg/kg, PO-30mpk; for Tmax: read-out: Tmax
# In short: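 Male naive ICR mice (25–30 g, n=3 per route) received a single intravenous or oral dose, with feeding resumed 4 h post-dose. Blood was centrifuged at 4°C, and plasma was stored at -80°C until analysis.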
IC50 (22RV1 cells; 168 h),IC50 (LNCaP cells),SMILES,also measured
,,CC(C)(c1ccc(-c2ccc(OCc3ccnc(N=S4(=O)CCOCC4)n3)cn2)cc1)c1cc(Cl)c(OCCCl)c(C#N)c1 [Compound 62],"IC50 (22RV1 cells; 22Rv1, 168 h): 260 nM; IC50 (LNCaP cells; LNCaP): 830 nM; AUC(0-inf) [1]: 188 µg·h/mL; Cmax [1]: 19900 ng/mL; half-life [1]: 2 h; Tmax [1]: 2 h"
,,Cc1cc(OCc2ccnc(P(C)(C)=O)n2)ccc1-c1ccc(C(C)(C)c2cc(Cl)c(OCCCl)c(C#N)c2)cc1 [Compound 119],"IC50 (22RV1 cells; 22Rv1, 168 h): 740 nM; IC50 (LNCaP cells; LNCaP): 940 nM; AUC(0-inf) [1]: 333 µg·h/mL; Cmax [1]: 17400 ng/mL; half-life [1]: 11.8 h; Tmax [1]: 4.7 h"
,,CC(C)(c1ccc(-c2cnc(OCc3ccnc(N=S4(=O)CCOCC4)n3)cn2)cc1)c1cc(Cl)c(OCCCl)c(C#N)c1 [Compound 206],"IC50 (22RV1 cells; 22Rv1, 168 h): 410 nM; IC50 (LNCaP cells; LNCaP): 980 nM; AUC(0-inf) [1]: 236 µg·h/mL; Cmax [1]: 32100 ng/mL; half-life [1]: 1.7 h; Tmax [1]: 2 h"
,,CC(C)(c1ccc(-c2ccc(/C=C/c3cnc(P(C)(C)=O)nc3)cc2)cc1)c1cc(Cl)c(OCCCl)c(C#N)c1 [Compound 234],"IC50 (22RV1 cells; 22Rv1, 168 h): 350 nM; IC50 (LNCaP cells; LNCaP): 580 nM; AUC(0-inf) [1]: 307 µg·h/mL; Cmax [1]: 13400 ng/mL; half-life [1]: 11 h; Tmax [1]: 7 h"
570 nM,240 nM,CC(C)(c1ccc(-c2ccc(OCc3nccnc3P(C)(C)=O)cc2)cc1)c1cc(Cl)c(OCCCl)c(C#N)c1 [Compound 358],
230 nM,74 nM,CC(C)(c1ccc(-c2ccc(OCc3ccc(-c4ccc(P(C)(C)=O)nc4)cc3)cc2)cc1)c1cc(Cl)c(OCCCl)c(C#N)c1 [Compound 359],
250 nM,400 nM,CC(C)(c1ccc(-c2cnc(OCc3ccc(-c4cnc(P(C)(C)=O)nc4)cc3)cn2)cc1)c1cc(Cl)c(OCCCl)c(C#N)c1 [Compound 361],
930 nM,550 nM,CC1(CO)CN(c2nccc(COc3cnc(-c4ccc(C(C)(C)c5cc(Cl)c(OCCCl)c(C#N)c5)cc4)cn3)n2)C1 [Compound 365],
640 nM,250 nM,CC(C)(c1ccc(-c2cnc(OCc3ccc(-c4cnc(P(C)(C)=O)nc4)nc3)cn2)cc1)c1cc(Cl)c(OCCCl)c(C#N)c1 [Compound 373],
380 nM,100 nM,CC(C)(c1ccc(-c2cnc(OCc3ccnc(N4CC5(CCS(=N)(=O)CC5)C4)n3)cn2)cc1)c1cc(Cl)c(OCCCl)c(C#N)c1 [Compound 377],
860 nM,410 nM,CC(C)(c1ccc(-c2ccc(OCc3ccc(-c4cnc(N5CC(S(C)(=O)=O)C5)nc4)cc3)c(C#N)c2)cc1)c1cc(Cl)c(OCCCl)c(C#N)c1 [Compound 382],
570 nM,220 nM,CC(C)(c1ccc(-c2cnc(COc3ccnc(P(C)(C)=O)n3)nc2)cc1)c1cc(Cl)c(OCCCl)c(C#N)c1 [Compound 385],
370 nM,530 nM,CC(C)(c1ccc(-c2cnc(OCc3ccnc(N4CC(N=S(C)(C)=O)C4)n3)cn2)cc1)c1cc(Cl)c(OCCCl)c(C#N)c1 [Compound 388],
110 nM,76 nM,CC(C)(c1ccc(-c2ccc(OCc3ccc(-c4ccc(P(C)(C)=O)nn4)cc3)cc2)cc1)c1cc(Cl)c(OCCCl)c(C#N)c1 [Compound 394],
950 nM,110 nM,CC(C)(c1ccc(-c2ccc(OCc3ccc(-c4cnc(P(C)(C)=O)nc4)cn3)nc2)cc1)c1cc(Cl)c(OCCCl)c(C#N)c1 [Compound 397],
510 nM,120 nM,CC(C)(c1ccc(-c2ccc(OCc3ccc(-c4cnc(P(C)(C)=O)nc4)nc3)nc2)cc1)c1cc(Cl)c(OCCCl)c(C#N)c1 [Compound 398],
660 nM,99 nM,CC(C)(c1ccc(-c2cnc(OCc3cnc(-c4cnc(P(C)(C)=O)nc4)cn3)nc2)cc1)c1cc(Cl)c(OCCCl)c(C#N)c1 [Compound 402],
880 nM,27000 nM,CC(C)(c1ccc(-c2ccc(OCc3cnc(-c4cnc(P(C)(C)=O)nc4)cn3)nc2)cc1)c1cc(Cl)c(OCCCl)c(C#N)c1 [Compound 410],

IC50 (22RV1 cells; 168 h),IC50 (LNCaP cells),SMILES,also measured
940 nM,360 nM,CN=S(C)(=O)C1CN(c2nccc(COc3ccc(-c4ccc(C(C)(C)c5cc(Cl)c(OCCCl)c(C#N)c5)cc4)nc3)n2)C1 (centres unmarked) [Compound 414],
130 nM,130 nM,CC(C)(c1ccc(-c2ccc(OCc3ccc(-c4cnc(P(C)(C)=O)cn4)cc3)cc2)cc1)c1cc(Cl)c(OCCCl)c(C#N)c1 [Compound 419],
350 nM,600 nM,CC(C)(c1ccc(-c2cnc(OCC34CC(c5cnc(P(C)(C)=O)nc5)(C3)C4)nc2)cc1)c1cc(Cl)c(OCCCl)c(C#N)c1 [Compound 421],
690 nM,530 nM,CC(C)(c1ccc(-c2ccc(OCc3ccnc(N4CC5(C4)CS(=N)(=O)C5)n3)cn2)cc1)c1cc(Cl)c(OCCCl)c(C#N)c1 [Compound 422],
660 nM,310 nM,CC(C)(c1ccc(-c2ncc(OCc3ccc(-c4cnc(P(C)(C)=O)cn4)cc3)cn2)cc1)c1cc(Cl)c(OCCCl)c(C#N)c1 [Compound 424],
840 nM,660 nM,CC(C)(c1ccc(-c2cnc(COc3ccnc(P(C)(C)=O)n3)cn2)cc1)c1cc(Cl)c(OCCCl)c(C#N)c1 [Compound 432],
180 nM,650 nM,CC(C)(c1ccc(-c2ccc(OCc3ccnc(N=S4(=O)CCN(CC(O)c5ccccc5)CC4)n3)cc2)cc1)c1cc(Cl)c(OCCCl)c(C#N)c1 (centres unmarked) [Compound 435],
990 nM,570 nM,CC(=O)c1nccc(COc2ccc(-c3ccc(C(C)(C)c4cc(Cl)c(OCCCl)c(C#N)c4)cc3)cc2)n1 [Compound 440],
380 nM,160 nM,CC(C)(c1ccc(-c2ccc3cc(OCc4ccnc(P(C)(C)=O)n4)ccc3c2)cc1)c1cc(Cl)c(OCCCl)c(C#N)c1 [Compound 442],
120 nM,130 nM,CC(C)(c1ccc(-c2cnc(OCc3ccnc(N4CCC5(CC4)CS(=N)(=O)C5)n3)cn2)cc1)c1cc(Cl)c(OCCCl)c(C#N)c1 [Compound 444],
130 nM,80 nM,CC(C)(c1ccc(-c2ccc(OCC34CC(c5cnc(P(C)(C)=O)nc5)(C3)C4)nc2)cc1)c1cc(Cl)c(OCCCl)c(C#N)c1 [Compound 445],
310 nM,140 nM,CC(C)(c1cnc(-c2ccc(OCc3ccnc(N4CC(S(C)(=O)=O)C4)n3)cc2)nc1)c1cc(Cl)c(OCCCl)c(C#N)c1 [Compound 446],
160 nM,42 nM,CNS(=O)(=O)C1CN(c2nccc(COc3cnc(-c4ccc(C(C)(C)c5cc(Cl)c(OCCCl)c(C#N)c5)cc4)cn3)n2)C1 [Compound 462],
88 nM,93 nM,CC(C)(c1ccc(-c2ccc(OCc3ccnc(N4C5CCC4CC(S(C)(=O)=O)C5)n3)cc2)cc1)c1cc(Cl)c(OCCCl)c(C#N)c1 (centres unmarked) [Compound 463],
950 nM,430 nM,CC(C)(c1cc(Cl)c(OCCCl)c(C#N)c1)c1ccc(-c2ccc(OCc3ccnc(N4CC(S(C)(=O)=O)C4)n3)cn2)cn1 [Compound 471],
170 nM,44 nM,CC(C)(c1cc(Cl)c(OCCCl)c(C#N)c1)c1ccc(-c2ccc(OCc3ccnc(N4CC(S(C)(=O)=O)C4)n3)cc2)cn1 [Compound 476],
690 nM,240 nM,CC(C)(c1cc(Cl)c(OCCCl)c(C#N)c1)c1ccc(-c2ccc(OCc3ccnc(N4CC(S(C)(=N)=O)C4)n3)cc2)cn1 (centres unmarked) [Compound 477],
